Molecular target: T1, PTP1B (Homo sapiens, UniProt P18031)
T1 construct: gene PTPN1; WT PTP1B containing a His-tag
T1 sequence (P18031 1-435): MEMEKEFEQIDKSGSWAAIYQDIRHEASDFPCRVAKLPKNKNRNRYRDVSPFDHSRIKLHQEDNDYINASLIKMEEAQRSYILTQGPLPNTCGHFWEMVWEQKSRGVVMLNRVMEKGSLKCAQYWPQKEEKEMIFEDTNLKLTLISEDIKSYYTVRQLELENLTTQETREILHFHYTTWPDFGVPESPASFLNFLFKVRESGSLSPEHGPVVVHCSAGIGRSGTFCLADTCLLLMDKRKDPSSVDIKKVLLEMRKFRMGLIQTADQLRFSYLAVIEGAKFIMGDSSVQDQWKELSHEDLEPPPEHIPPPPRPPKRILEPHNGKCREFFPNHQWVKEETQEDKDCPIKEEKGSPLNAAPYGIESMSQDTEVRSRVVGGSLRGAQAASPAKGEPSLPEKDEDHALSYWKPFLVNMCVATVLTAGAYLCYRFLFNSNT
Assay: DiFMUP fluorescence phosphatase assay with […] purified PTP1B
Format: biochemical

Compound: CC(=O)[C@H]1CC[C@H]2[C@@H]3CC[C@H]4C[C@](C)(O)CC[C@]4(C)[C@H]3CC[C@]12C [ganaxolone, 3α-Hydroxy-3β-methyl-5α-pregnan-20-one]
- IC50: 600 nM

Source: PMC13311170, “Ganaxolone, an approved therapy for CDKL5-deficiency disorder, is an inhibitor of PTP1B” (The Journal of Biological Chemistry, 2026)
